PMC8584985, “Characterization of a new type of neuronal 5-HT G- protein coupled receptor in the cestode nervous system” (PLoS ONE, 2021)

Experiments:
Assay type in all cases: cell-based, Echinococcus canadensis
Eca-5-HT1a [1] = assay: FLIPR calcium assay, agonist concentration-response
Eca-5-HT1a [2] = test system: T1, Eca-5-HT1a; assay: FLIPR calcium assay on mutant receptor
T1 construct: full-length mutant in HEK293-Gα15 cells

Eca-5-HT1a [3] = test system: T2, Eca-5-HT1a; assay: FLIPR calcium assay (Fluo-4), HEK293-GNA15 cells transiently expressing the receptor; a stable line gave EC50 […]
T2 construct: full-length, human codon optimized cDNA in HEK293-GNA15 cells

Structure (SMILES) | EC50 (Eca-5-HT1a [1]) [nM] | EC50 (Eca-5-HT1a [2]) [nM] | EC50 (Eca-5-HT1a [3]) [nM]
CC(N)Cc1c[nH]c2ccc(O)cc12 (stereo not drawn) [α-MTS, α-methylserotonin] | 2730 ± 730 |  | 
COc1ccc2[nH]cc(CCN)c2c1 [5-MTT, 5-methoxytryptamine] | 98 ± 50 |  | 
NCCc1c[nH]c2ccc(O)cc12 [serotonin] |  | 11500 | 7.74 ± 0.63
